Data from patent US7531482B2, “Thieno-pyrimidine compounds having fungicidal activity” (Dow AgroSciences LLC, priority 2005, dated 2009).

Legend:
Format in all cases: in vivo
[1] = system: Puccinia recondita tritici; assay: Leaf Rust of Wheat (PUCCRT) whole-plant disease control test; details: for pest or weed control at 200 ppm: read-out: PUCCRT disease control
Leptosphaeria nodorum = assay: Glume Blotch of Wheat (LEPTNO) whole-plant disease control test; details: Parastagonospora nodorum, foliar; for pest or weed control at 200 ppm: 200 ppm applied to foliage of wheat, inoculated one day after treatment, read-out: LEPTNO disease control; for pest or weed control at 75 ppm: 75 ppm (footnote b), wheat foliage
[2] = system: Mycosphaerella graminicola=Septoria tritici; assay: Speckled Leaf Blotch of Wheat (SEPTTR) whole-plant disease control test; details: 75 ppm applied to foliage of wheat; for pest or weed control at 75 ppm: Mycosphaerella, foliar, read-out: SEPTTR disease control
Erysiphe cichoracaerum = assay: Cucumber Powdery Mildew (ERYSCI) whole-plant disease control test; details: Erysiphe, foliar; for pest or weed control at 200 ppm: 200 ppm applied to foliage of cucumber, inoculated one day after treatment, read-out: ERYSCI disease control
Phytophthora infestans = assay: whole plant or invertebrate; details: for pest or weed control at 200 ppm: read-out: PHYTIN disease control, 200 ppm applied to foliage of tomato
Colletotricum lagenarium = assay: Cucumber Anthracnose (COLLLA) whole-plant disease control test; details: Cucumis sativus, foliar; for pest or weed control at 200 ppm: 200 ppm applied to foliage of cucumber, inoculated one day after treatment, read-out: COLLLA disease control
[3] = system: Magnaporthe grisea=Pyricularia oryzae; assay: whole plant or invertebrate; details: for pest or weed control at 200 ppm / pest or weed control at 8.3 ppm: Pyricularia oryzae, foliar; for pest or weed control at 200 ppm: read-out: PYRIOR disease control, 200 ppm applied to foliage of rice; for pest or weed control at 8.3 ppm: read-out: PYRIOR disease control, 8.3 ppm (footnote c), rice foliage
[4] = Puccinia recondita, foliar, 200 ppm applied to foliage of wheat, inoculated one day after treatment
[5] = Phytophthora infestans, in Solanum lycopersicum, foliar, inoculated one day after treatment
[6] = inoculated one day after treatment
[7] = 100 ppm (footnote a), cucumber foliage

SMILES	pest or weed control at 200 ppm [1, 4]	pest or weed control at 200 ppm (Leptosphaeria nodorum)	pest or weed control at 75 ppm [2]	pest or weed control at 200 ppm (Erysiphe cichoracaerum)	pest or weed control at 200 ppm (Phytophthora infestans; [5])	pest or weed control at 200 ppm (Colletotricum lagenarium)	pest or weed control at 200 ppm [3, 6]	PUCCRT disease control ([1]; 200 ppm applied to foliage of wheat, inoculated one day after treatment)	SEPTTR disease control [2]	PHYTIN disease control (Phytophthora infestans; 200 ppm applied to foliage of tomato, inoculated one day after treatment)	PYRIOR disease control ([3]; 200 ppm applied to foliage of rice, inoculated one day after treatment)	pest or weed control at 8.3 ppm ([1]; Puccinia recondita, foliar, 8.3 ppm (footnote c), wheat foliage)	pest or weed control at 75 ppm (Leptosphaeria nodorum)	pest or weed control at 100 ppm (Erysiphe cichoracaerum; [7])	pest or weed control at 100 ppm (Phytophthora infestans; Phytophthora infestans, in Solanum lycopersicum, foliar, read-out: PHYTIN disease control, 100 ppm (footnote a), tomato foliage)	pest or weed control at 100 ppm (Colletotricum lagenarium; [7])	pest or weed control at 8.3 ppm [3]
Fc1cnc(C(F)(F)F)c(F)c1Oc1ccc(CCNc2ncnc3scc(Cl)c23)cc1 [Compound 61]	80 to 100%	50 to 79%	80 to 100%	80 to 100%	0 to 49%	80 to 100%	80 to 100%										
CC(Cc1ccc(Oc2c(Cl)cnc(C(F)(F)F)c2Cl)cc1)Nc1ncnc2scc(Cl)c12 (centres unmarked) [Compound 94]	80 to 100%	0 to 49%	0 to 49%	50 to 79%	0 to 49%	50 to 79%	80 to 100%										
Cc1cc(Br)cnc1Oc1ccc(CCNc2ncnc3scc(Cl)c23)cc1 [Compound 42]	0 to 49%	50 to 79%	80 to 100%	0 to 49%	0 to 49%	0 to 49%	80 to 100%										
N#Cc1ncc(Oc2ccc(CCNc3ncnc4scc(Cl)c34)cc2)cn1 [Compound 40]	80 to 100%	0 to 49%	0 to 49%	50 to 79%	80 to 100%	0 to 49%	80 to 100%										
N#Cc1ccncc1Oc1ccc(CCNc2ncnc3scc(Cl)c23)cc1 [Compound 74]	80 to 100%	80 to 100%	50 to 79%	0 to 49%	50 to 79%	80 to 100%	80 to 100%										
FC(F)(F)c1ccc(Oc2ccc(CCNc3ncnc4scc(Cl)c34)cc2)nc1 [Compound 1, 5-(Chlorothieno[2,3-d]pyrimidin-4-yl)-{2-[4-(5-trifluoromethylpyridin-2-yloxy)phenyl]ethyl}amine]	80 to 100%	50 to 79%	50 to 79%	50 to 79%	0 to 49%	0 to 49%	80 to 100%										
Clc1csc2ncnc(NCCc3ccc(Oc4ncnc5scnc45)cc3)c12 [Compound 86]	80 to 100%	50 to 79%	80 to 100%	50 to 79%	80 to 100%	0 to 49%	50 to 79%										
CC(=O)c1ccc(Oc2ccc(CCNc3ncnc4scc(Cl)c34)cc2)nc1 [Compound 39]	80 to 100%	0 to 49%	0 to 49%	50 to 79%	80 to 100%	0 to 49%	80 to 100%										
Cc1cc(OC(F)F)cnc1Oc1ccc(CCNc2ncnc3scc(Cl)c23)cc1 [Compound 70]	80 to 100%	80 to 100%	80 to 100%	0 to 49%	50 to 79%	80 to 100%	80 to 100%										
Clc1csc2ncnc(NCCc3ccc(Oc4ncnc5scc(Cl)c45)cc3)c12 [Compound 108]		0 to 49%		0 to 49%		0 to 49%		* (* = 0–49 percent control)	** (** = 50–79 percent control)	* (* = 0–49 percent control)	** (** = 50–79 percent control)						
N#Cc1ccnc(Oc2ccc(CCNc3ncnc4scc(Br)c34)cc2)c1 [Compound 47]			50 to 79%									80 to 100%	80 to 100%	80 to 100%	0 to 49%	0 to 49%	80 to 100%
FC(F)(F)c1ccnc(Oc2cccc(CCNc3ncnc4scc(Cl)c34)c2)c1 [Compound 69]	80 to 100%	0 to 49%	50 to 79%	50 to 79%	0 to 49%	0 to 49%	80 to 100%										
CC(=O)c1cnc(Oc2ccc(CCNc3ncnc4scc(Cl)c34)cc2)s1 [Compound 46]	80 to 100%	0 to 49%	50 to 79%	0 to 49%	0 to 49%	0 to 49%	50 to 79%										
CC(C)c1cncnc1COc1ccc(CCNc2ncnc3scc(Cl)c23)cc1 [Compound 107]	80 to 100%	0 to 49%	50 to 79%	0 to 49%	80 to 100%	0 to 49%	80 to 100%										
Cc1noc2ncnc(Oc3ccc(CCNc4ncnc5scc(Cl)c45)cc3)c12 [Compound 66]	80 to 100%	0 to 49%	50 to 79%	0 to 49%	0 to 49%	0 to 49%	50 to 79%										
CO/N=C(\C)c1cnc(Oc2ccc(CCNc3ncnc4scc(Cl)c34)cc2)s1 [Compound 48]	80 to 100%	0 to 49%	50 to 79%	80 to 100%	80 to 100%	50 to 79%	80 to 100%										
FC(F)(F)c1ncccc1Oc1ccc(CCNc2ncnc3scc(Cl)c23)cc1 [Compound 78]	80 to 100%	80 to 100%	50 to 79%	80 to 100%	50 to 79%	50 to 79%	80 to 100%										
COc1cc(C#N)cc(Oc2ccc(CCNc3ncnc4scc(Cl)c34)cc2)n1 [Compound 81]	80 to 100%	80 to 100%	50 to 79%	50 to 79%	0 to 49%	50 to 79%	80 to 100%										
COc1nsc(Oc2ccc(CCNc3ncnc4scc(Cl)c34)cc2)n1 [Compound 122]	80 to 100%		50 to 79%	80 to 100%	50 to 79%	50 to 79%							0 to 49%				80 to 100%
COc1cc(C(F)(F)F)cc(Oc2ccc(CC(C)Nc3ncnc4scc(Cl)c34)cc2)n1 (centres unmarked) [Compound 88]	80 to 100%	0 to 49%	50 to 79%	80 to 100%	0 to 49%	50 to 79%	80 to 100%										
